Target: T1, soluble guanylate cyclase (human GUCYA3/GUCYB3) overexpressed in CHO cells (Homo sapiens, UniProt Q02108+Q02153)
T1 construct: expressed in transfected cells
T1 sequence (Q02108 1-690 partner): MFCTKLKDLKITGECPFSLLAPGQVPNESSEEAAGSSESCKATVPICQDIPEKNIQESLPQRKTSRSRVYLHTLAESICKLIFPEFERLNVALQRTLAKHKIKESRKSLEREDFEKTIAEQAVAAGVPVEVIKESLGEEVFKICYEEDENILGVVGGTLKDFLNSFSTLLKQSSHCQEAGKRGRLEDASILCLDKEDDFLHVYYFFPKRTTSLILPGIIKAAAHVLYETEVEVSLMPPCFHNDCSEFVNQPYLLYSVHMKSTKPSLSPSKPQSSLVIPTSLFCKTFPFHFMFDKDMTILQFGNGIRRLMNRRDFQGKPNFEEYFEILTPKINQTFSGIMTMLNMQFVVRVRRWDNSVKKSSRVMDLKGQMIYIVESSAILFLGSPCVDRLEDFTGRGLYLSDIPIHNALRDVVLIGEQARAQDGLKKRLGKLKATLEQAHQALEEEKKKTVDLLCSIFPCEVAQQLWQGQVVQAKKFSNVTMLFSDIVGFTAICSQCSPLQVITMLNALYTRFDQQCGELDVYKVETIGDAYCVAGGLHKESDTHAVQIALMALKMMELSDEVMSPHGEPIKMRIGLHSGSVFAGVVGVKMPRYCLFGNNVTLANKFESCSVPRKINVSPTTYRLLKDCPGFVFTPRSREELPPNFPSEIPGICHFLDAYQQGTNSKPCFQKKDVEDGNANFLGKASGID
T1 sequence (Q02153 1-619): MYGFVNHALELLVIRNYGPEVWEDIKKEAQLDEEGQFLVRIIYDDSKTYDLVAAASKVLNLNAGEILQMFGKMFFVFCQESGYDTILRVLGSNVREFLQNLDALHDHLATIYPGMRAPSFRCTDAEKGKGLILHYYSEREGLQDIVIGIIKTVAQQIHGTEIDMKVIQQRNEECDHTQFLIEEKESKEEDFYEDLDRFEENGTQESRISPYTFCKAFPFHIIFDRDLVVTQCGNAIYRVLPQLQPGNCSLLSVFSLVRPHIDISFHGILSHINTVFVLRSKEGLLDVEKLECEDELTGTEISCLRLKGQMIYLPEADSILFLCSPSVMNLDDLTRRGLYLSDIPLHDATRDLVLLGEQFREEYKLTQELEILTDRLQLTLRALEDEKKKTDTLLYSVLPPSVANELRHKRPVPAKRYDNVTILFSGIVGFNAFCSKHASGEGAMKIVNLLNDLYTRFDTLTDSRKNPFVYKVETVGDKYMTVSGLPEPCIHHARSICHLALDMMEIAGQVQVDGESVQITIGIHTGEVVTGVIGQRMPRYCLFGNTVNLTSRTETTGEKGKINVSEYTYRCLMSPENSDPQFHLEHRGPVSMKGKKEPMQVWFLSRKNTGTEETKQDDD
Assay: CHO cellular assay (cGMP production, HTRF)
Type: cell-based
Settings: CHO K1 clone 8E10 overexpressing human sGC, Cisbio HTRF, 1 h room temperature, 1 mM IBMX, 20 uM ODQ, minimum quantification limit 0.5 nM
Source text: Chinese hamster ovary (CHO) cells overexpressing soluble guanylate cyclase were generated to test the effect of sGC activators in a cellular context. Human cDNAs for GUCYA3 (RefSeq: NM_000856.3) and GUCYB3 (RefSeq: NM_000857.1) were amplified by PCR from a HUVEC (Human Umbilical Vein Endothelial Cells) cDNA library and cloned into mammalian expression vectors. CHO K1 cells (ATCC CCL-61) were transfected using Lipofectamine 2000 following manufacturer's instructions and stably expressing clones were identified by antibiotic selection. CHO GUCY clone 8E10 was used for subsequent experiments.
Cells were seeded at a density of 3000 cells/well in white 384-well proxyplates (Perkin Elmer) and incubated overnight, then the medium was removed and cells were washed with assay buffer (HBSS, 0.1% BSA, 1 mM IBMX, 20 uM ODQ). sGC activators were serially diluted in DMSO, then diluted in assay buffer prior to adding to cells (10 ul/well, final DMSO concentration 0.5%). Cells were incubated with compounds for 1 h room temperature, then assayed for cGMP production using Cisbio cGMP HTRF kit (62GM2PEC) according to manufacturer's instructions.
The EC50s are calculated based on the amount of cGMP interpolated from the standard curve, using a 4-parameter sigmoidal dose-response.

EC50 | Compound
2.4 nM | CCc1c(C)sc(-c2cccc(-n3ncc(C(=O)O)c3C(F)(F)F)n2)c1COc1ccc(C2CCN(CC(F)(F)F)CC2)cc1C [Example 6-18, 1-(6-(4-Ethyl-5-methyl-3-((2-methyl-4-(1-(2,2,2-trifluoroethyl)piperidin-4-yl)phenoxy)methyl)thiophen-2-yl)pyridin-2-yl)-5-(trifluoromethyl)-1H-pyrazole-4-carboxylic acid]
2 nM | O=C(O)c1cnn(-c2cccc(-c3sccc3COc3ccc(C4CCN(C(=O)C5CC5)CC4)cn3)n2)c1C(F)(F)F [Example 6-19, 1-(6-(3-(((5-(1-(Cyclopropanecarbonyl)piperidin-4-yl)pyridin-2-yl)oxy)methyl)thiophen-2-yl)pyridin-2-yl)-5-(trifluoromethyl)-1H-pyrazole-4-carboxylic acid]
≤ 0.5 nM | CCC(=O)N1CCC(c2ccc(OCc3ccsc3-c3cccc(-n4ncc(C(=O)O)c4C(F)(F)F)n3)c(Cl)c2)CC1 [Example 7, 1-(6-(3-((2-Chloro-4-(1-propionylpiperidin-4-yl)phenoxy)methyl)thiophen-2-yl)pyridin-2-yl)-5-(trifluoromethyl)-1H-pyrazole-4-carboxylic acid]
≤ 0.5 nM | O=C(O)c1cnn(-c2cccc(-c3sccc3COc3ccc(C4CCN(C(=O)C5CC5)CC4)cc3Cl)n2)c1C(F)(F)F [Example 8, 1-(6-(3-((2-Chloro-4-(1-(cyclopropanecarbonyl)piperidin-4-yl)phenoxy)methyl)thiophen-2-yl)pyridin-2-yl)-5-(trifluoromethyl)-1H-pyrazole-4-carboxylic acid]
≤ 0.5 nM | Cc1cc(C2CCN(C(=O)C3CC3)CC2)ccc1OCc1ccsc1-c1cccc(-n2ncc(C(=O)O)c2C)n1 [Example 9, 1-(6-(3-((4-(1-(Cyclopropanecarbonyl)piperidin-4-yl)-2-methylphenoxy)methyl)thiophen-2-yl)pyridin-2-yl)-5-methyl-1H-pyrazole-4-carboxylic acid]
≤ 0.5 nM | CCc1cc(OCc2ccsc2-c2cccc(-n3ncc(C(=O)O)c3C)n2)ccc1C1CCN(C(=O)C2CC2)CC1 [Example 10-1, 1-(6-(3-((4-(1-(Cyclopropanecarbonyl)piperidin-4-yl)-3-ethylphenoxy)methyl)thiophen-2-yl)pyridin-2-yl)-5-methyl-1H-pyrazole-4-carboxylic acid]
≤ 0.5 nM | CCc1cc(OCc2ccsc2-c2cccc(-n3ncc(C(=O)O)c3CC)n2)ccc1C1CCN(C(=O)C2CC2)CC1 [Example 10-2, 1-(6-(3-((4-(1-(Cyclopropanecarbonyl)piperidin-4-yl)-3-ethylphenoxy)methyl)thiophen-2-yl)pyridin-2-yl)-5-ethyl-1H-pyrazole-4-carboxylic acid]
≤ 0.5 nM | Cc1cc(COc2ccc(C3CCN(C(=O)C4CC4)CC3)cc2C)c(-c2cccc(-n3ncc(C(=O)O)c3C)n2)s1 [Example 10-3, 1-(6-(3-((4-(1-(Cyclopropanecarbonyl)piperidin-4-yl)-2-methylphenoxy)methyl)-5-methylthiophen-2-yl)pyridin-2-yl)-5-methyl-1H-pyrazole-4-carboxylic acid]
≤ 0.5 nM | CCc1cc(OCc2cc(C)sc2-c2cccc(-n3ncc(C(=O)O)c3C)n2)ccc1C1CCN(C(=O)C2CC2)CC1 [Example 10-4, 1-(6-(3-((4-(1-(Cyclopropanecarbonyl)piperidin-4-yl)-3-ethylphenoxy)methyl)-5-methylthiophen-2-yl)pyridin-2-yl)-5-methyl-1H-pyrazole-4-carboxylic acid]
≤ 0.5 nM | CCc1cc(OCc2c(C)csc2-c2cccc(-n3ncc(C(=O)O)c3C(F)(F)F)n2)ccc1C1CCN(C(=O)C2CC2)CC1 [Example 10-5, 1-(6-(3-((4-(1-(Cyclopropanecarbonyl)piperidin-4-yl)-3-ethylphenoxy)methyl)-4-methylthiophen-2-yl)pyridin-2-yl)-5-(trifluoromethyl)-1H-pyrazole-4-carboxylic acid]
≤ 0.5 nM | CCc1c(C(=O)O)cnn1-c1cccc(-c2sc(C)c(C)c2COc2ccc(C3CCN(C(=O)C4CC4)CC3)cc2C)n1 [Example 10-6, 1-(6-(3-((4-(1-(Cyclopropanecarbonyl)piperidin-4-yl)-2-methylphenoxy)methyl)-4,5-dimethylthiophen-2-yl)pyridin-2-yl)-5-ethyl-1H-pyrazole-4-carboxylic acid]
37 nM | Cc1c(OCc2ccsc2-c2cccc(-n3ncc(C(=O)O)c3C(F)(F)F)n2)ccc2c1CCN(Cc1ccccn1)C2 [Example 10-7, 1-(6-(3-(((5-Methyl-2-(pyridin-2-ylmethyl)-1,2,3,4-tetrahydroisoquinolin-6-yl)oxy)methyl)thiophen-2-yl)pyridin-2-yl)-5-(trifluoromethyl)-1H-pyrazole-4-carboxylic acid]
15 nM | Cc1cc(C2CCN(C(=O)C3CC3)CC2)ccc1OC(C)c1ccsc1-c1cccc(-n2ncc(C(=O)O)c2C(F)(F)F)c1 (stereo not drawn) [Example 10-8, 1-(3-(3-(1-(4-(1-(Cyclopropanecarbonyl)piperidin-4-yl)-2-methylphenoxy)ethyl)thiophen-2-yl)phenyl)-5-(trifluoromethyl)-1H-pyrazole-4-carboxylic acid]
57 nM | Cc1cc(C2CCN(CC(F)(F)F)CC2)ccc1OCc1c(C)csc1-c1cccc(-n2ncc(C(=O)O)c2C(F)(F)F)n1 [Example 10-9, 1-(6-(4-methyl-3-((2-methyl-4-(1-(2,2,2-trifluoroethyl)piperidin-4-yl)phenoxy)methyl)thiophen-2-yl)pyridin-2-yl)-5-(trifluoromethyl)-1H-pyrazole-4-carboxylic acid]
2 nM | Cc1cc(C2CCN(C(=O)CC3CC3)CC2)ccc1OCc1ccsc1-c1cccc(-n2ncc(C(=O)O)c2C(F)(F)F)n1 [Example 11, 1-(6-(3-((4-(1-(2-Cyclopropylacetyl)piperidin-4-yl)-2-methylphenoxy)methyl)thiophen-2-yl)pyridin-2-yl)-5-(trifluoromethyl)-1H-pyrazole-4-carboxylic acid]
≤ 0.5 nM | Cc1cc(C2CCN(C(=O)C3CCC3)CC2)ccc1OCc1ccsc1-c1cccc(-n2ncc(C(=O)O)c2C(F)(F)F)n1 [Example 12-1, 1-(6-(3-((4-(1-(Cyclobutanecarbonyl)piperidin-4-yl)-2-methylphenoxy)methyl)thiophen-2-yl)pyridin-2-yl)-5-(trifluoromethyl)-1H-pyrazole-4-carboxylic acid]
4.5 nM | Cc1cc(C2CCN(C(=O)C3CC3)CC2)ccc1OCc1ccsc1-c1cccc(-n2ncc(C(=O)O)c2C(F)(F)F)n1 [Example 12-2, 1-(6-(3-((4-(1-(Cyclopropanecarbonyl)piperidin-4-yl)-2-methylphenoxy)methyl)thiophen-2-yl)pyridin-2-yl)-5-(trifluoromethyl)-1H-pyrazole-4-carboxylic acid]
≤ 0.5 nM | CCc1cc(OCc2cc(C)sc2-c2cccc(-n3ncc(C(=O)O)c3C(F)(F)F)n2)ccc1C1CCN(C(=O)CC2CC2)CC1 [Example 12-4, 1-(6-(3-((4-(1-(2-Cyclopropylacetyl)piperidin-4-yl)-3-ethylphenoxy)methyl)-5-methylthiophen-2-yl)pyridin-2-yl)-5-(trifluoromethyl)-1H-pyrazole-4-carboxylic acid]
